Test system: formalin-induced pain response in mice
Test: formalin-induced pain response test in mice
Assay type: in vivo
Conditions: formalin 0.92% in hind paw, licking time 15 to 30 min after injection, dose 1 mg/kg i.v.
Method: The compounds of the present invention were evaluated for their analgesic properties in the formalin-induced pain response test in mice (Shibata, M., Ohkubo, T., Takahashi, H. & R. Inoki. Modified formalin test: characteristic biphasic pain response. Pain, 38, 347-352). To summarize, formalin (0.92% in saline solution) is injected into the hind paw and the paw licking time, which reflects pain intensity, is recorded from 0 to 5 min (1st phase) and from 15 to 30 min (2nd phase) after injection.
In the case of “N-[[4-(4,5-dihydro-1H-imidazol-2-yl)phenyl]methyl]-2-[2-[[(4-methoxy-2,6-dimethylphenyl)sulphonyl]methylamino]ethoxy]-N-methyl-acetamide, trifluoroacetate [Example 49]”, the “% inhibition of the 2nd paw licking phase” value (from here on “% inhibition”) is reported as 40%.

Same assay, conditions: formalin 0.92% in hind paw, licking time 15 to 30 min after injection, dose 10 mg/kg i.p.
In the case of `Cc1c(Cl)ccc(S(=O)(=O)N(CCCCC(=O)N(C)Cc2ccc(C3=NCCN3)cc2)CC(N)=O)c1Cl.O=C(O)C(F)(F)F` [Example 19, 5-[(2-amino-2-oxoethyl)[(2,4-dichloro-3-methylphenyl)sulphonyl]-amino]-N-[[4-(4,5-dihydro-1H-imidazol-2-yl)phenyl]methyl]-N-methyl-pentanamide, trifluoroacetate], the “% inhibition” value is reported as 42%.

Same assay, conditions: formalin 0.92% in hind paw, licking time 15 to 30 min after injection, dose 100 mg/kg p.o.
In the case of “5-[[(2,3-dichlorophenyl)sulphonyl]methylamino]-N-[[4-(4,5-dihydro-1H-imidazol-2-yl)phenyl]methyl]-N-methyl-pentanamide, trifluoroacetate [Example 9]”, the “% inhibition” value is reported as 60%. With `CN(Cc1ccc(C2=NCCN2)cc1)C(=O)CCCCN(C1CC1)S(=O)(=O)c1cccc(Cl)c1Cl.O=C(O)C(F)(F)F` [Example 16, 5-[cyclopropyl[(2,3-dichlorophenyl)sulphonyl]amino]-N-[[4-(4,5-dihydro-1H-imidazol-2-yl)phenyl]methyl]-N-methyl-pentanamide, trifluoroacetate] the “% inhibition” value was 80%.

Test system: not given
Test: not given
Conditions: not given
`CN(Cc1ccc(C2=NCCN2)cc1)C(=O)/C=C/CN(C)S(=O)(=O)c1ccc(OC(F)(F)F)cc1Cl.O=C(O)C(F)(F)F` showed a melting point of 68 °C. Work on `CN(Cc1ccc(C2=NCCN2)cc1)C(=O)/C=C/CN(C)S(=O)(=O)c1cccc2ccccc12.O=C(O)C(F)(F)F` yielded a melting point of 77 °C. Work on `CN(Cc1ccc(C2=NCCN2)cc1)C(=O)CCCCN(C1CC1)S(=O)(=O)c1ccccc1Cl.O=C(O)C(F)(F)F` yielded a melting point of 55 °C. `CC(C)N(CCCCC(=O)N(C)Cc1ccc(C2=NCCN2)cc1)S(=O)(=O)c1c(Cl)cccc1Cl.O=C(O)C(F)(F)F` showed a melting point of 60 °C. Compound `Cc1c(Cl)ccc(S(=O)(=O)N(CCCCC(=O)N(C)Cc2ccc(C3=NCCN3)cc2)CCC(N)=O)c1Cl.O=C(O)C(F)(F)F` has a melting point of 85 °C. In the case of `CC(C)N(CCC(=O)N(C)Cc1ccc(C2=NCCN2)cc1)S(=O)(=O)c1cccc(Cl)c1Cl.O=C(O)C(F)(F)F`, the melting point is reported as 92 °C. In the case of `CC(C)N(CCC(=O)N(C)Cc1ccc(C2=NCCN2)cc1)S(=O)(=O)c1c(Cl)cccc1Cl.O=C(O)C(F)(F)F`, the melting point is reported as 75 °C. Compound `CN(Cc1ccc(C2=NCCN2)cc1)C(=O)COCCN(C1CC1)S(=O)(=O)c1ccccc1Cl.O=C(O)C(F)(F)F` has a melting point of 52 °C. Work on `CN(Cc1ccc(C2=NCCN2)cc1)C(=O)COCCN(C1CC1)S(=O)(=O)c1cccc(Cl)c1Cl.O=C(O)C(F)(F)F` yielded a melting point of 65 °C. `CN(Cc1ccc(C2=NCCN2)cc1)C(=O)COCCN(C1CC1)S(=O)(=O)c1c(Cl)cccc1Cl.O=C(O)C(F)(F)F` showed a melting point of 60 °C. `Cc1c(Cl)ccc(S(=O)(=O)N(CCOCC(=O)N(C)Cc2ccc(C3=NCCN3)cc2)CCc2ccccc2)c1Cl.O=C(O)C(F)(F)F` gave a melting point of 85 °C. With `CN(Cc1ccc(C2=NCCN2)cc1)C(=O)CCN(C1CC1)S(=O)(=O)c1cccc(Cl)c1Cl.O=C(O)C(F)(F)F` the melting point was 80 °C. Work on `CN(Cc1ccc(C2=NCCN2)cc1)C(=O)CCN(C1CC1)S(=O)(=O)c1c(Cl)cccc1Cl.O=C(O)C(F)(F)F` yielded a melting point of 65 °C. `CN(Cc1ccc(C2=NCCN2)cc1)C(=O)CCN(CC(F)(F)F)S(=O)(=O)c1cccc(Cl)c1Cl.O=C(O)C(F)(F)F` gave a melting point of 88 °C. `CN(Cc1ccc(C2=NCCN2)cc1)C(=O)CCN(CC(F)(F)F)S(=O)(=O)c1c(Cl)cccc1Cl.O=C(O)C(F)(F)F` gave a melting point of 80 °C. For `CN(Cc1ccc(C2=NCCN2)cc1)C(=O)/C=C/CN(C)S(=O)(=O)c1ccccc1C(F)(F)F.O=C(O)C(F)(F)F`, the melting point was 50 °C. `Cc1c(Cl)ccc(S(=O)(=O)NC/C=C/C(=O)N(C)Cc2ccc(C3=NCCN3)cc2)c1Cl.O=C(O)C(F)(F)F` gave a melting point of 99 °C. `CN(Cc1ccc(C2=NCCN2)cc1)C(=O)COCCN(C)S(=O)(=O)c1ccccc1C(F)(F)F.O=C(O)C(F)(F)F` gave a melting point of 60 °C. `CN(Cc1ccc(C2=NCCN2)cc1)C(=O)COCCN(C)S(=O)(=O)c1c(Cl)cc(C(F)(F)F)cc1Cl.O=C(O)C(F)(F)F` gave a melting point of 60 °C. For `CN(Cc1ccc(C2=NCCN2)cc1)C(=O)COCCN(C)S(=O)(=O)c1ccc(Cl)c(Cl)c1Cl.O=C(O)C(F)(F)F`, the melting point was 70 °C. With `CN(Cc1ccc(C2=NCCN2)cc1)C(=O)COCCN(C)S(=O)(=O)c1cccc2ccccc12.O=C(O)C(F)(F)F` the melting point was 66 °C. Work on `CN(Cc1ccc(C2=NCCN2)cc1)C(=O)COCCN(C)S(=O)(=O)c1cccc(C(F)(F)F)c1.O=C(O)C(F)(F)F` yielded a melting point of 60 °C. `CN(Cc1ccc(C2=NCCN2)cc1)C(=O)CCCCN(C1CC1)S(=O)(=O)c1cccc(Cl)c1Cl.O=C(O)C(F)(F)F` [Example 16, 5-[cyclopropyl[(2,3-dichlorophenyl)sulphonyl]amino]-N-[[4-(4,5-dihydro-1H-imidazol-2-yl)phenyl]methyl]-N-methyl-pentanamide, trifluoroacetate] gave a melting point of 70 °C. Work on `Cc1c(Cl)ccc(S(=O)(=O)N(CCCCC(=O)N(C)Cc2ccc(C3=NCCN3)cc2)CC(N)=O)c1Cl.O=C(O)C(F)(F)F` [Example 19, 5-[(2-amino-2-oxoethyl)[(2,4-dichloro-3-methylphenyl)sulphonyl]-amino]-N-[[4-(4,5-dihydro-1H-imidazol-2-yl)phenyl]methyl]-N-methyl-pentanamide, trifluoroacetate] yielded a melting point of 90 °C.
